We go through seven compounds from US7691825B2, “Adenosine A2B receptor agonists” (King Pharmaceuticals Research and Development, Inc., priority 2006, dated 2010).

Data set [1] has as its target T1, hA2A receptors expressed in CHO cells (Homo sapiens, UniProt P29274).
T1 construct: expressed in transfected cells; host or cells: CHO cells (stably transfected, per Klotz et al. 1998); membrane preparation
Put plainly: [3H]CGS21680 binding hA2A CHO cells. To be noted: [3H]-CGS 21680, hA2A CHO cell membranes, 180 min at 25° C.; mean ± s.e. mean.
Method: (§2) The cells are grown adherently and maintained in Dulbecco's Modified Eagles Medium with nutrient mixture F12 (DMEM/F12) without nucleosides, containing 10% fetal calf serum, penicillin (100 U/mL), streptomycin (100 μg/mL), L-glutamine (2 mM) and Geneticin (G418, 0.2 mg/mL) at 37° C. in 5% CO2/95% air. […] For membrane preparation the culture medium is removed and the cells are washed with PBS and scraped off T75 flasks in ice-cold hypotonic buffer (5 mM Tris HCl, 2 mM EDTA, pH 7.4). The cell suspension is homogenized and centrifuged for 30 min at 100,000×g. The membrane pellet is re-suspended in 50 mM Tris HCl buffer pH 7.4 and incubated with 2 UI/mL of adenosine deaminase for 30 min at 37° C.
(§3) Binding of 1 nM [^3H]—CHA to hA1CHO cells (50 μg of protein/assay) is performed using 50 mM Tris HCl buffer pH 7.4 and at least 6-8 different concentrations of agonists studied for an incubation time of 150 min at 25° C. […] Non-specific binding is determined in the presence of 10 μM of CHA and is about 20% of the total binding. […] Filter bound radioactivity is measured by scintillation spectrometry after addition of 5 mL of Aquassure.
(§4) All experimental data are expressed as the mean±standard error of the mean (s.e. mean) of three or four independent experiments performed in duplicate.

Data set [2] concerns the target T2, hA2B receptors expressed in CHO cells (Homo sapiens, UniProt P29275).
T2 construct: expressed in transfected cells; host or cells: CHO cells
T2 sequence (P29275 1-332): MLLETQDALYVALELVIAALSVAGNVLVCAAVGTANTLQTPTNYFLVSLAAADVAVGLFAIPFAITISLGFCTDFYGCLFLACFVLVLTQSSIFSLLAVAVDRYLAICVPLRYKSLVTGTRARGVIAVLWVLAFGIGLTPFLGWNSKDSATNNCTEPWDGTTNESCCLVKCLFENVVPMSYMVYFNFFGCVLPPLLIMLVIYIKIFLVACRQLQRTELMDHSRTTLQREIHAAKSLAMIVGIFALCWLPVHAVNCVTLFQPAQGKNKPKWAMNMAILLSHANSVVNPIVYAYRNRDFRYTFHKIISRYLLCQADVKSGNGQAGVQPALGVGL
In words: cAMP assay hA2B CHO cells. The format is cell-based. To be noted: for Selectivity hA1/hA2B: ratio hA1 Ki / hA2B EC50; for Selectivity hA2A/hA2B: ratio hA2A Ki / hA2B EC50; for Selectivity hA3/hA2B: ratio hA3 IC50 / hA2B EC50; for EC50: stimulation of cAMP levels, hA2B CHO cells, mean ± s.e. mean. Here is the method:
The effects of the tested compounds may be evaluated in functional assays measuring the stimulatory capability of the ligands to increase cAMP levels in hA2B receptors expressed in CHO cells. This may done as described by Pastorin et al. in “Pyrazolo[4,3-e]-1,2,4-triazolo[1,5-c]pyrimidine derivatives as adenosine receptor antagonists.
(§1) For cell preparation CHO cells transfected with human A2B or A3 receptors are washed with phosphate-buffered saline and diluted trypsin, and centrifuged for 10 min at 200 g. […] After the preincubation time at 37° C., the examined ligands (1 nM-10 μM) are added to the mixture and incubated for a further 5 min. The reaction is terminated by the addition of cold 6% trichloroacetic acid (TCA). The TCA suspension is centrifuged at 2000 g for 10 min at 4° C. and the supernatant is extracted four times with water saturated diethyl ether. […] Samples of cyclic AMP standard (0-10 pmoles) are added to each test tube containing the incubation buffer (trizma base 0.1 mM, aminophylline 8.0 mM, 2-mercaptoethanol 6.0 mM, pH 7.4) and [^3H]cyclic AMP in total volume of 0.5 mL. The binding protein previously incubated at 4° C. for 150 min, and after the addition of charcoal is centrifuged at 2000 g for 10 min. The clear supernatant is counted in a Beckman scintillation counter.

The target of data set [3] is T3, human A3 receptors in CHO cells (Homo sapiens, UniProt P0DMS8).
T3 construct: expressed in transfected cells; host or cells: CHO cells
T3 sequence (P0DMS8 1-318): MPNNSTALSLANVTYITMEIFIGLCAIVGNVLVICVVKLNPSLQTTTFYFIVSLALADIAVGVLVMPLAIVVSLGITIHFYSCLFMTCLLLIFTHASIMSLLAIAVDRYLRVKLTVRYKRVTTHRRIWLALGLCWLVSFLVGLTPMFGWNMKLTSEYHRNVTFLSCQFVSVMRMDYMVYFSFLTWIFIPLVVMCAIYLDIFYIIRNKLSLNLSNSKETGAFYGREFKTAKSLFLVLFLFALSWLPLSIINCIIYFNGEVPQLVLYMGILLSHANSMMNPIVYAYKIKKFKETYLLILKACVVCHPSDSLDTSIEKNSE
In words: cAMP assay hA3 CHO cells. In kind it is cell-based. To be noted: cyclic AMP assay, mean ± s.e. mean. As to the method:
as §1
For orientation: Cyclic AMP is a second messenger, typically raised through Gs and lowered through Gi signalling.

Data set [4] has as its target T4, hA1 receptors expressed in CHO cells (Homo sapiens, UniProt P30542).
T4 sequence (P30542 1-326): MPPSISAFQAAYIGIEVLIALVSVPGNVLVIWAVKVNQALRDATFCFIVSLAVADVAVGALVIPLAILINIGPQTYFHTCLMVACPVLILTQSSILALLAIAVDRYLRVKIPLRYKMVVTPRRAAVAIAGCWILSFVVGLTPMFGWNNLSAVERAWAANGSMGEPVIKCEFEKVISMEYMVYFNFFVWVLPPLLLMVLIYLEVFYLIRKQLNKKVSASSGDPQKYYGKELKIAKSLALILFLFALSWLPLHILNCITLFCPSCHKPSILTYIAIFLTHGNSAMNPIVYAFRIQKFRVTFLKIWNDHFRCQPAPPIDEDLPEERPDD
Put plainly: [3H]CHA binding hA1 CHO cells.
Method: as §2, §3, §4

[5] abbreviates: read-out: [3H]CHA binding hA1 CHO cells Ki, 1 nM [3H]-CHA, hA1 CHO cell membranes, 150 min at 25° C., mean ± s.e. mean.

Structures are written as SMILES. Read-outs that look alike come from different tables or passages of the source. Where only a bound is given, the exact number is not on record here.

T1 sequence (P29274 whole entry): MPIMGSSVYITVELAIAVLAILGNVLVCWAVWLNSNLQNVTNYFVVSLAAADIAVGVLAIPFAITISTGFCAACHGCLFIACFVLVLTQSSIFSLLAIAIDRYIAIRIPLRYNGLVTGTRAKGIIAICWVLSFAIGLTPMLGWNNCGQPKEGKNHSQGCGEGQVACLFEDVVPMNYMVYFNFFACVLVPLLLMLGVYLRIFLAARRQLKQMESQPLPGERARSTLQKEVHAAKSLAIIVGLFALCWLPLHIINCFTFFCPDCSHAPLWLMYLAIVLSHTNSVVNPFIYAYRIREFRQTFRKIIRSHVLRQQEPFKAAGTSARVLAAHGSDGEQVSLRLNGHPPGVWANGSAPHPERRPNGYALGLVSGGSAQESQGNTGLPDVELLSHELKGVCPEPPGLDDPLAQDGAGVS

With `CCNC(=O)[C@H]1O[C@@H](n2cnc3c(NNC(=O)Cc4cccs4)nc(Cl)nc32)[C@H](O)[C@@H]1O` [Compound 20b, (2S, 3S, 4R, 5R)-5-{2-Chloro-6-[N′-(2-thiophene-2-yl-acetyl)-hydrazino]-9H-purin-9-yl}-3,4-dihydroxy-tetrahydrofuran-2-carboxylic acid ethylamide], the melting point lay within 153 to 154 °C. This compound also gave an inhibitory constant (Ki) in data set [1] of 633 ± 60 nM. For the same compound, in data set [2], the “Selectivity hA1/hA2B” value amounted to 0.10, the “Selectivity hA2A/hA2B” value is 1.05, the “Selectivity hA3/hA2B” value turned out to be 0.11 and the EC50 turned out to be 603 ± 31 nM. The compound also had a half-maximal inhibitory concentration (IC50) in data set [3] of 67 ± 4 nM. Besides, the Ki in data set [4] (setting [5]) worked out at 62 ± 4 nM.

Regarding `CCNC(=O)[C@H]1O[C@@H](n2cnc3c(NNC(=O)c4ccsc4)nc(Cl)nc32)[C@H](O)[C@@H]1O` [Compound 21b, (2S, 3S, 4R, 5R)-5-{2-Chloro-6-[N′-(thiophene-3-carbonyl)-hydrazino]-9H-purin-9-yl}-3,4-dihydroxy-tetrahydrofuran-2-carboxylic acid ethylamide], the melting point lay within 249 to 250 °C. Besides, the Ki in data set [1] is over 1000 nM. In data set [2], the “Selectivity hA1/hA2B” value is on record as 2.07, the “Selectivity hA2A/hA2B” value is listed as over 2.22, the “Selectivity hA3/hA2B” value is given as over 2.22 and the response was half-maximal at 450 ± 29 nM (EC50). The compound further registered an IC50 in data set [3] of over 1000 nM. Further, in data set [4] (setting [5]), the Ki is 933 ± 76 nM.

Turning to `CCNC(=O)[C@H]1O[C@@H](n2cnc3c(NNC(=O)c4cccs4)nc(Cl)nc32)[C@H](O)[C@@H]1O` [Compound 22b, (2S, 3S, 4R, 5R)-5-{2-Chloro-6-[N′-(thiophene-2-carbonyl)-hydrazino]-9H-purin-9-yl}3,4-dihydroxy-tetrahydrofuran-2-carboxylic acid ethylamide], the melting point lay within 189 to 190 °C. In data set [1], the Ki is over 1000 nM. In addition, in data set [2], the “Selectivity hA1/hA2B” value was 3.68, the “Selectivity hA2A/hA2B” value is reported as over 5.00, the “Selectivity hA3/hA2B” value is over 5.00 and a half-maximal response (EC50) required 200 ± 20 nM. In addition, the IC50 in data set [3] is over 1000 nM. Moreover, the Ki in data set [4] (setting [5]) amounted to 737 ± 76 nM.

In turn, `CCNC(=O)[C@H]1O[C@@H](n2cnc3c(NNC(=O)c4sccc4C)nc(Cl)nc32)[C@H](O)[C@@H]1O` [Compound 23b] displayed a melting point of 160 to 161 °C. Moreover, the Ki in data set [1] is over 1000 nM. Moreover, in data set [2], the “Selectivity hA1/hA2B” value was over 2.94, the “Selectivity hA2A/hA2B” value is given as over 2.94, the “Selectivity hA3/hA2B” value is over 2.94 and a half-maximal response (EC50) required 340 ± 35 nM. Besides, the half-inhibitory concentration (IC50) in data set [3] is over 1000 nM. Besides, in data set [4], the Ki is over 1000 nM.

As to `CCNC(=O)[C@H]1O[C@@H](n2cnc3c(NNC(=O)c4ccc[nH]4)nc(Cl)nc32)[C@H](O)[C@@H]1O` [Compound 24b, (2S, 3S, 4R, 5R)-5-{2-Chloro-6-[N′-(1H-pyrrole-2-carbonyl)-hydrazino]-9H-purin-9-yl}-3,4-dihydroxy-tetrahydrofuran-2-carboxylic acid ethylamide], the melting point is 230 to 231 °C. Also, the Ki in data set [1] was over 1000 nM. Also, in data set [2], the “Selectivity hA1/hA2B” value came out at 1.70, the “Selectivity hA2A/hA2B” value is on record as over 2.78, the “Selectivity hA3/hA2B” value is over 2.78 and the EC50 was found to be 359 ± 36 nM. This compound also had an IC50 in data set [3] of over 1000 nM. The Ki in data set [4] (setting [5]) came out at 610 ± 32 nM.

For the compound `CCNC(=O)[C@H]1O[C@@H](n2cnc3c(NNC(=O)c4cc(C)on4)nc(Cl)nc32)[C@H](O)[C@@H]1O` [Compound 25b, (2S, 3S, 4R, 5R)-5-{2-Chloro-6-[N′-(5-methyl-isoxazole-3-carbonyl)-hydrazino]-9H-purin-9-yl}-3,4-dihydroxy-tetrahydrofuran-2-carboxylic acid ethylamide], the melting point is 182 to 183 °C. The Ki in data set [1] was over 1000 nM. The compound further showed an EC50 in data set [2] of over 1000 nM. Also, the 50% inhibitory concentration (IC50) in data set [3] is over 1000 nM. For the same compound, the Ki in data set [4] is over 1000 nM.

For `CCNC(=O)[C@H]1O[C@@H](n2cnc3c(NNC(=O)c4cc(-c5ccccc5)on4)nc(Cl)nc32)[C@H](O)[C@@H]1O` [Compound 26b, (2S, 3S, 4R, 5R)-5-{2-Chloro-6-[N′-(5-phenyl-isoxazole-3-carbonyl)-hydrazino]-9H-purin-9-yl}-3,4-dihydroxy-tetrahydrofuran-2-carboxylic acid ethylamide], the melting point was 169 to 170 °C. Also, in data set [1], the Ki was over 1000 nM. In data set [2], the concentration giving a half-maximal response (EC50) is over 1000 nM. Besides, the IC50 in data set [3] is over 1000 nM. This compound yielded an inhibition constant Ki in data set [4] of over 1000 nM.

Usually Ki stands for the equilibrium dissociation constant of an inhibitor or competing ligand from its target. In general, EC50 refers to the concentration needed to bring the measured effect to its halfway point. As usually defined, the IC50 is the point on the concentration scale where inhibition reaches its midpoint. Read a low IC50 as greater potency in that assay. Usually melting point stands for the temperature, or range, at which the solid turns liquid.
